# Test results: US20050170391A1, “TAUT1 transporters expressed in blood brain barrier cells” (Xenoport, Inc., priority 2004, published 2005)
# Several values for one entry are separate records, joined by “and”; a condition that tells them apart may be missing. Equal entries are not always repeated.
# T1: TAUT1 (Homo sapiens, UniProt P31641)
# T1 sequence (P31641 1-620): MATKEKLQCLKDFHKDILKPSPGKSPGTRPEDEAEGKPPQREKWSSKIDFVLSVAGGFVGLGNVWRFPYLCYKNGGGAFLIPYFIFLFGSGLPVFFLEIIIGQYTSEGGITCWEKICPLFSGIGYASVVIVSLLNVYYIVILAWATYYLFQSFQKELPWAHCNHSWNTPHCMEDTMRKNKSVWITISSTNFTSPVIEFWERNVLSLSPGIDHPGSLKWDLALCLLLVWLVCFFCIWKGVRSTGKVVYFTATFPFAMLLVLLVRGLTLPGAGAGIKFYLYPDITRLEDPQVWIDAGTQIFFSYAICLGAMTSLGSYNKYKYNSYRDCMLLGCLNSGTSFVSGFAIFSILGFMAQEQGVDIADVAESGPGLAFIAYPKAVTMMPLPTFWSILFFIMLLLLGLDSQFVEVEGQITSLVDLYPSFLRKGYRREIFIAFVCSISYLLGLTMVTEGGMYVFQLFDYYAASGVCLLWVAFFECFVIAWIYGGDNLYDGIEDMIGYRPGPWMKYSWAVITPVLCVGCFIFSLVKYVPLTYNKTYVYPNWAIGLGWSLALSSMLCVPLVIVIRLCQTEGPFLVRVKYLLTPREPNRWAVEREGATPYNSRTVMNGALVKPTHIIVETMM
# B1: hTAUT1 (Homo sapiens) (protein)
# chain: T1 sequence (P31641 1-620)
# Assays:
# PgP = PgP (Homo sapiens, UniProt P08183); test: Cellular transwell monolayer efflux assay, MDCK cells with TREx-PgP
# PgP, sequence (P08183 whole entry): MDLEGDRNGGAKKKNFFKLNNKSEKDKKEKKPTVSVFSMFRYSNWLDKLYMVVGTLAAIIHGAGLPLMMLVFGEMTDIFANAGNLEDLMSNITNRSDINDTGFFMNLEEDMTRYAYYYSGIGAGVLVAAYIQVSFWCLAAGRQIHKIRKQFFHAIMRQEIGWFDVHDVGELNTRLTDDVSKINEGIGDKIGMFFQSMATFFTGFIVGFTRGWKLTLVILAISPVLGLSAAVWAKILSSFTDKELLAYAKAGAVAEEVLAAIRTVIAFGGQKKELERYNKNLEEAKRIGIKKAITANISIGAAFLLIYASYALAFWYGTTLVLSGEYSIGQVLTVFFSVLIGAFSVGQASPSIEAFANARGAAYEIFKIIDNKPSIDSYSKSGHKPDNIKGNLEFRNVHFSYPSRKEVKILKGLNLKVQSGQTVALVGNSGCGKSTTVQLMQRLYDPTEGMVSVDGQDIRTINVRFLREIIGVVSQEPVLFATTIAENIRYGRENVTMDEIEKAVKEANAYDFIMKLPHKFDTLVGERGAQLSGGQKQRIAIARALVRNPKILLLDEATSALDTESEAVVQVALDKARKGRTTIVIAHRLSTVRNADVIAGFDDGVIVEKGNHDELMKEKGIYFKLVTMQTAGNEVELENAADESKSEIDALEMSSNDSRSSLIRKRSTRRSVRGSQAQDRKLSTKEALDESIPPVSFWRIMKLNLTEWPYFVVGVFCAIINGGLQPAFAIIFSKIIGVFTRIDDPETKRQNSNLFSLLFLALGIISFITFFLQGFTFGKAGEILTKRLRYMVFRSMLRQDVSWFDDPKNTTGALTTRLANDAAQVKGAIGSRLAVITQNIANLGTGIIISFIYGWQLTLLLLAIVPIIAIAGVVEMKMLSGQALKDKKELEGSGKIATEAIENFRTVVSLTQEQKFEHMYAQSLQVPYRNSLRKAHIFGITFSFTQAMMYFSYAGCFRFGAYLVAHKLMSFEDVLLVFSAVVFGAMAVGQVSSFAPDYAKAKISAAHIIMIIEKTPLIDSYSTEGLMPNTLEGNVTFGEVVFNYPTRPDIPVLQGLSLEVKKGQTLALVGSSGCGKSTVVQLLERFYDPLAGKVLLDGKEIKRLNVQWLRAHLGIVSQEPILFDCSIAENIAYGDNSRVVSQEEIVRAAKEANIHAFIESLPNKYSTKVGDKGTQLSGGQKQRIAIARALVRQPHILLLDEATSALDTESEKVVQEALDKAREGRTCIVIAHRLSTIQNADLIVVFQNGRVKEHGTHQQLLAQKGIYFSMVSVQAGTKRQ
# Description: A third type of efflux transporter assay is the cellular transwell monolayer efflux assay. In this assay, cells expressing efflux transporters, such as MDCK cells containing the TREx-PgP expression vector (Invitrogen Inc., Carlsbad, Calif.), are seeded and grown in transwell dishes on filter membranes made of substances such as polycarbonate. The cells form a polarized monolayer. The transwell dishes have apical and basolateral chambers that are separated by the filter membrane on which the polarized monolayer is situated. Assays are performed by placing a test compound in either the apical or basolateral chamber, followed by sampling the opposite chamber after a predetermined period of time such as 60-120 minutes and measuring the amount of the test compound. The test compound can be measured by methods such as radiolabel detection or LC-MS-MS analysis. Assays are performed in the presence and absence of an efflux transporter inhibitor or competitor. Efflux transporter inhibitors or competitors increase apical to basolateral transport and decrease basolateral to apical transport of compounds that are efflux transporter substrates. Apparent permeability (Papp) of test compounds is measured. […] Test compounds that generate ratios between 1.5 and 2.0 require additional testing to determine if they are efflux transporter substrates. An agent, conjugate, or conjugate moiety that is a TAUT1 substrate and also generates a ratio of greater than 2.0 can be modified.
# MDCK cells transfected with the tetracycline-inducible TREx-PgP expression vector were seeded on polycarbonate filter membranes in transwell dishes and grown for 3-5 days, yielding a polarized monolayer with tight junctions between cells. […] The left set of bars depicts apical to basolateral transport, while the right set of bars depicts basolateral to apical transport.
# TAUT1 [1] = molecular target: T1, TAUT1; test: hTAUT1 competition uptake assay in HEK-TREx-TAUT1 cells; type: cell-based; design: expressed in transfected cells; host or cells: HEK-TREx cells (HEK-TREx-TAUT1 inducible line)
# Description: A modified competition uptake assay was developed to determine the ability of a test compound(s) to inhibit the uptake of radiolabeled substrates into HEK-TREx-TAUT1 cells induced to over-express hTAUT. The results are stated as affinities (IC50).
# The competition uptake assay were prepared as follows: Compounds were prepared for assay by diluting a 100 mM stock concentration (in DMSO) to the appropriate working concentration. Typically, seven-point dose response curves were prepared starting at a final assay concentration of 1 mM and carrying out three-fold dilutions. These dilutions were prepared by making a working “compound” plate that contained a 2× solution of the desired starting concentration of each test compound in duplicate in row A of a v-bottom microtiter plate. Six 3-fold serial dilutions (from row B to G) were made into the HBSS assay buffer (9.8 g/L Hank's Balance Salts (Sigma; H-1387), 2.6 g/L HEPES (10 mM) (Sigma; H-3375), 0.35 g/L NaHCO3 (4.2 mM) (Sigma; S-6297), pH to 7.4 with 5N NaOH) (with the appropriate amount of DMSO so that the DMSO concentration remains constant at all dilutions). The resulting “compound” plate contained serial dilutions of six compounds in duplicate.
# ^3H-GABA was diluted into HBSS buffer to a final concentration of 4,000 cpm/μl. Enough solution was prepared to allow addition of 25 μl/well (the final concentration was 100,000 cpm/well).
# HEK-TREx-hTAUT cells, plated in 96-well plates and treated with tetracycline (or tet analog (e.g., doxycycline), were removed from the incubator. Growth media was removed from the cells, and the cells were washed twice in room temperature HBSS (100 μl/well/wash) using a 96-well plate washer (Bio Tek ELX405). Alternatively, cells were washed manually with equivalent volumes using a multichannel pipettor. Immediately before beginning the assay, the final 100 μl wash solution was removed from the cells by aspiration.
# Using a 96-well pipettor, 25 μl from the “compound” plate was added to each well of the cell plate. The assay was started by adding 25 μl of the ^3H-GABA working solution. The plate was incubated at room temperature for 15 minutes. The assay was stopped by washing the cells four times with ice-cold HBSS buffer using a ELX 405 plate washer (100 μl buffer/well/wash) having an angled buffer dispenser.
# Scintillation fluid (200 μl) (Optiphase Supermix (Perkin Elmer) was added to each well, and the plate was covered with a 96-well adhesive plate cover and placed on a shaker for 10 minutes. The plates were counted on a 96-well plate scintillation counter for 60 sec/well. The data were analyzed using a sigmoidal dose response curve-fitting program ((Prism, GraphPad, Inc, San Diego, Calif.; equation: one-site competition).
# FIG. 7 depicts the results of a competition experiment using HEK-TREx-TAUT1 cells. ^3H-taurine was used as the substrate and unlabeled taurine was used as the competitor. The competition experiment was performed as described in Example 7. Non-specific uptake was determined by measuring the uptake into cells not induced to express the transporter (“no tet”). […] In control cells, uptake of labeled taurine remained at background levels and was largely unaffected by an excess of unlabeled taurine.
# These four compounds, IAA, R,S-Baclofen, GPA, and GABA, were tested in both competition and direct uptake assays. One notable difference in the competition assay format compared to the literature is that ^3H-GABA was used, rather than ^3H-taurine, as the radiolabel. […] Therefore, to develop a competition assay that is as sensitive as possible, ^3H-GABA, a substrate with a much […] affinity, was used.
# TAUT1 [2] = molecular target: T1, TAUT1; test: ^3H-taurine uptake by Xenopus oocytes injected with TAUT1 cRNA; type: cell-based; design: expressed in transfected cells; host or cells: Xenopus oocytes injected with TAUT1 cRNA; settings: oocytes expressing TAUT1 vs noninjected controls (FIG. 2)
# TAUT1 [3] = molecular target: T1, TAUT1; settings: reported value, source not given; cited from earlier work
# [4] = substrate: NCCCC(=O)O; test: cells, lysate or membranes; settings: other: direct uptake into HEK-TREx-TAUT1 cells, +TET minus no TET; 15 min, room temperature
# [5] = 2.5 nM ^3H-vinblastine, in the presence of 250 μM verapamil vs absence (FIG. 6)
molecule,measurement,setting,value
CC[C@]1(O)C[C@@H]2CN(CCc3c([nH]c4ccccc34)[C@@](C(=O)OC)(c3cc4c(cc3OC)N(C)[C@H]3[C@@](O)(C(=O)OC)[C@H](OC(C)=O)[C@]5(CC)C=CCN6CC[C@]43[C@@H]65)C2)C1 [^3H-vinblastine],Apical to basolateral transport,PgP; [5],strongly increased
same,basolateral to apical transport,PgP; [5],strongly decreased
same,PgP substrate status,PgP; conclusion from transwell transport with and without verapamil,substrate of PgP
NCCS(=O)(=O)O [Taurine],IC50,"TAUT1 [1]; HEK-TREx-TAUT1 cells induced with tetracycline, ^3H-GABA radiolabel (taurine: ^3H-taurine per Example 9), 15 min, room temperature",10 µM
same,radiolabel uptake,"TAUT1 [1]; ^3H-taurine as radiolabel in HEK-TREx-TAUT1 cells, in a very short time",> 25 % of the input cpm
same,uptake of labeled taurine with increasing unlabeled taurine,"TAUT1 [1]; ^3H-taurine substrate, unlabeled taurine competitor, cells induced to express TAUT1 (FIG. 7)",the uptake of labeled taurine decreased as the concentration of unlabeled taurine increased
same,^3H-taurine uptake,TAUT1 [2],higher levels of ^3H-taurine uptake than noninjected controls
same,Reported Affinity for TAUT1,TAUT1 [3],0.1 mM
B1,Km,[4],270 µM and 200 µM
